Data taken from ChEMBL document CHEMBL6127093, “The evolution of small-molecule Akt inhibitors from hit to clinical candidate” (Eur J Med Chem, 2024).
In brackets after ≈: the same amount, converted by molar mass.

Tests used:
[1] = Antiproliferative activity against human 95-D cells assessed as reduction in cell viability incubated for 24 hrs by MTT assay; type: functional, cell-based
KOSC-2 = test: Antiproliferative activity against human KOSC-2 cells assessed as reduction in cell viability incubated for 24 hrs by MTT assay; type: functional, cell-based; settings: KOSC-2, 24 h
[2] = Antiproliferative activity against human KHOS-240S cells assessed as reduction in cell viability incubated for 24 hrs by MTT assay; type: functional, cell-based
[3] = Metabolic stability in mouse hepatocyte assessed as intrinsic clearance; type: ADME, cell-based; settings: hepatocytes
[4] = Metabolic stability in rat hepatocyte assessed as intrinsic clearance; type: ADME, cell-based; settings: hepatocytes
[5] = Clearance in Beagle dog at 0.5 mg/kg, iv; type: ADME, organism-based, Canis lupus familiaris; settings: in vivo
[6] = Volume of distribution at steady state in mouse at 5 mg/kg, iv; type: ADME, organism-based; settings: in vivo, read-out: Vdss
[7] = Volume of distribution at steady state in rat at 1 mg/kg, iv; type: ADME, organism-based; settings: in vivo, read-out: Vdss
[8] = Volume of distribution at steady state in dog at 1 mg/kg, iv; type: ADME, organism-based, Canis lupus familiaris; settings: in vivo, read-out: Vdss
in vivo [9] = settings: mouse
in vivo [10] = settings: rat
[11] = Microsomal stability in human liver microsomes assessed as half life; type: ADME, Microsome
[12] = Aqueous solubility of compound at pH 7.4; type: physicochemical; settings: buffer
[13] = Half life in Sprague-Dawley rat at 2 mg/kg, iv by LC-MS/MS analysis; type: ADME, organism-based; settings: in vivo
[14] = Oral bioavailability in CD-1 mouse at 5 mg/kg measured for 24 hrs by LC-MS/MS analysis; type: ADME, organism-based; settings: in vivo
PC-3 [15] = test: Antitumor activity against human PC-3 cells xenografted in mouse assessed as inhibition of tumor growth at 50 mg/kg, po administered for 15 days relative to control; type: functional; settings: PC-3, 360 h, time 15 day, read-out: TGI
PC-3 [16] = test: Antitumor activity against human PC-3 cells xenografted in CD-1 mouse assessed as tumor growth inhibition at 100 mg/kg, po bid administration relative to control; type: functional; settings: read-out: TGI

Cn1nccc1-c1ccc(C(=O)N[C@@H]2CNCC[C@H]2c2ccc(F)c(F)c2)c(F)c1
IC50 [1]: 1.03 µM | IC50 (KOSC-2): 7.47 µM | IC50 [2]: 7.47 µM

NC1(C(=O)NCc2ccc(Cl)cc2)CCN(c2ncnc3[nH]ccc23)CC1
CLH [3]: 10 µL/min | CLH [4]: 19 µL/min | clearance [5]: 2 mL/min/kg | Vd [6]: 2.8 L/kg | Vd [7]: 3.1 L/kg | Vd [8]: 2 L/kg

NC1(C(=O)N[C@@H](CCO)c2ccc(Cl)cc2)CCN(c2ncnc3[nH]ccc23)CC1 [CAPIVASERTIB]
IC50 [1]: 2.32 µM | IC50 (KOSC-2): 40.4 µM | IC50 [2]: 40.4 µM | clearance (in vivo [9]): 86 mL/min/kg | clearance (in vivo [10]): 37 mL/min/kg

Nc1ncccc1-c1nc2ccc(-c3ccccc3)nc2n1-c1ccc(C2(N)CCC2)cc1 [MIRANSERTIB]
half-life [11]: 0.917 h

NC(=O)c1cccc2c(N[C@H](CN3CCC3)c3ccc(Cl)c(C(F)(F)F)c3)ncnc12 [RUPITASERTIB]
solubility [12]: 17 µg/mL (≈ 37.8 µM) | half-life [13]: 3.9 h | bioavailability [14]: 10%

Cc1c(NCCN2CCCC2)cc(C(=O)CCC(F)(F)F)cc1N1CCN(c2ncnc3[nH]nc(Br)c23)CC1 [XL-418]
inhibition in vivo at 50 mg/kg (PC-3 [15]): 52% | inhibition in vivo at 100 mg/kg (PC-3 [16]): 90%
